This test deals with T1, KRAS G12C 1-169, his-tagged protein, GDP-loaded (Homo sapiens, UniProt P01116, G12C).
T1 construct: KRAS G12C 1-169, his-tagged protein, GDP-loaded
In words: Covalent binding (% modification) to KRAS G12C by mass spectrometry. Here is the method: Test compounds were prepared as 10 mM stock solutions in DMSO (Fisher cat # BP-231-100). KRAS G12C 1-169, his-tagged protein, GDP-loaded was diluted to 2 μm in buffer (20 mM Hepes, 150 mM NaCl, 1 mM MgCl2). Compounds were tested for activity as follows:
Compounds were diluted to 50× final test concentration in DMSO in 96-well storage plates. Compound stock solutions were vortexed before use and observed carefully for any sign of precipitation. Dilutions were as follow: • For 100 μM final compound concentration, compounds were diluted to 5000 μM (5 μl 10 mM compound stock+5 μl DMSO and mixed well by pipetting. • For 30 μM final compound concentration, compounds were diluted to 1500 μM (3 μl 10 mM compound stock+17 μl DMSO) and mixed well by pipetting. • For 10 μM final compound concentration, compounds were diluted to 500 μM (2 μl 10 mM compound stock+38 μl DMSO) and mixed well by pipetting. 49 μl of the stock protein solution was added to each well of a 96-well PCR plate (Fisher cat #1423027). 1 μl of the diluted 50× compounds were added to appropriate wells in the PCR plate using 12-channel pipettor. Reactions were mixed carefully and thoroughly by pipetting up/down with a 200·1 multi-channel pipettor. […] 5 μl of 2% formic acid (Fisher cat # A117) in DI H2O was then added to each well followed by mixing with a pipette. The plate was then resealed with aluminum seal and stored on dry ice until analyzed as described below.
The above described assays were analyzed by mass spectrometry according to one of the following two procedures:
The MS instrument is set to positive polarity, 2 GHz resolution, and low mass (1700) mode and allowed to equilibrate for 30 minutes. The instrument is then calibrated, switched to acquisition mode and the appropriate method loaded.
After another 30 minute equilibration time, a blank batch (i.e., buffer) is run to ensure equipment is operating properly. The samples are thawed at 37° C. for 10 minutes, briefly centrifuged, and transfer to the bench top. Wells A1 and H12 are spiked with 1 uL 500 uM internal standard peptide, and the plates centrifuged at 2000×g for 5 minutes. The method is then run and masses of each individual well recorded.
The masses (for which integration data is desired) for each well are pasted into the platemap and exported from the analysis. Masses for the internal standards are exported as well. The data at 50 ppm is extracted for the +19 charge state, and identity of well A1 is assigned using the internal standard spike and integrated. Peak data is exported as a TOF list and the above steps are repeated individually, for the +20, 21, 22, 23, 24, and 25 charge states.
The masses and peak intensities of KRAS G12C protein species were measured using a Dionex RSLCnano system (Thermo Scientific) connected to a Q Exactive Plus mass spectrometer (Thermo Scientific).
[…] of sample was each loaded onto a Aeris™ 3.6 μm WIDEPORE C4 200 Å, LC Column 50×2.1 mm column maintained at 40° C. at a flow rate of 600 μl min^−1 with […] (0.1% formic acid in acetonitrile). The liquid chromatography conditions were 20% solvent B for 1 min, 20% to 60% solvent B for 1.5 min, 60% to 90% solvent for 0.5 min, 90% solvent B for 0.2 min, 90% to 20% solvent B for 0.2 min, and then equilibrated for 1.6 min before the following sample injection. The flow rate was maintained at 600 μl min^−1 throughout the sample analysis.
The mass spectrometer was operated in profile mode at a resolution of 17500, 5 microscans, using 50 msec max injection time and an AGC target of 1e6, and a full mass range from 800-1850 m/z was recorded. The HCD trapping gas was optimized for maximum sensitivity for intact proteins. The ionization method was electrospray ionization, which used a spray voltage of 4 kV, sheath gas flow set to 50 au, auxiliary gas flow set to 10 au and sweep gas flow set to 1 au. […]

[1] abbreviates: covalent binding to KRAS G12C after a ten minute incubation period.

On to “1-((2R,5S)-4-(6- chloro-2-(2- (diethylamino) ethoxy)-8-fluoro- 7-((S)-6-methyl- 1H-indazol-7-yl) quinazolin-4-yl)- 2,5-dimethyl- piperazin-1-yl) prop-2-en-1-one [Compound 157]”, for which, for the setting “covalent binding to KRAS G12C after a three minute incubation period”, the Binding % entry was “+ (+ indicates binding activity greater than 0% and up to 50%)”. Take `C=CC(=O)N1CCN(c2nc(NC3CCN(C4CC4)CC3)nc3c(F)c(-c4c(C)ccc5[nH]ncc45)c(Cl)cc23)[C@@H](C)C1` (atropisomer, axis not shown) [Compound 13, 1-((S)-4-(6-chloro-2-(1-cyclopropyl-piperidin-4-ylamino)-8-fluoro-7-((R)-5-methyl-1H-indazol-4-yl)quinazolin-4-yl)-3-methyl-piperazin-1-yl) prop-2-en-1-one]: the Binding % result under setting [1] is recorded as “+++ (+++ indicates binding activity greater than 90%)”.

Regarding `C=CC(=O)N1CCN(c2nc(NC3CCN(C4CC4)CC3)nc3c(F)c(-c4c(C)ccc5[nH]ncc45)c(Cl)cc23)[C@@H](C)C1` (atropisomer, axis not shown) [Compound 14, 1-((S)-4-(6-chloro-2-((1-cyclopropyl-piperidin-4-yl)amino)-8-fluoro-7-((S)-5-methyl-1H-indazol-4-yl)quinazolin-4-yl)-3-methyl-piperazin-1-yl) prop-2-en-1-one], the Binding % entry under setting [1] was “+ (+ indicates binding activity up to 50%)”. For the compound `C=CC(=O)N1C[C@H](C)N(c2nc(N3CC(N(C)C)C3)nc3c(F)c(-c4c(O)cccc4F)c(Cl)cc23)C[C@H]1C` (atropisomer, axis not shown) [Compound 52, 1-((2R,5S)-4-((S)-6-chloro-2-(3-(dimethylamino)azetidin-1-yl)-8-fluoro-7-(2-fluoro-6-hydroxyphenyl)quinazolin-4-yl)-2,5-dimethyl-piperazin-1-yl) prop-2-en-1-one], the Binding % entry under setting [1] was “+++ (+++ indicates binding activity greater than 90%)”. As for `C=CC(=O)N1C[C@H](C)N(c2nc(N3CC(N(C)C)C3)nc3c(F)c(-c4c(O)cccc4F)c(Cl)cc23)C[C@H]1C` (atropisomer, axis not shown) [Compound 53, 1-((2R,5S)-4-((R)-6-chloro-2-(3-(dimethylamino)azetidin-1-yl)-8-fluoro-7-(2-fluoro-6-hydroxyphenyl)quinazolin-4-yl)-2,5-dimethyl-piperazin-1-yl) prop-2-en-1-one], under setting [1], the Binding % result is “+ (+ indicates binding activity up to 50%)”. On to `C=CC(=O)N1CCN(c2nc(N3CC(N(C)C)C3)nc3c(F)c(-c4c(O)cccc4F)c(Cl)cc23)[C@@H](C)C1` (atropisomer, axis not shown) [Compound 58, 1-((S)-4-((S)-6-chloro-2-(3-(dimethylamino)azetidin-1-yl)-8-fluoro-7-(2-fluoro-6-hydroxyphenyl)quinazolin-4-yl)-3-methyl-piperazin-1-yl) prop-2-en-1-one], for which the Binding % entry under setting [1] was “+++ (+++ indicates binding activity greater than 90%)”. `C=CC(=O)N1CCN(c2nc(N3CC(N(C)C)C3)nc3c(F)c(-c4c(O)cccc4F)c(Cl)cc23)[C@@H](C)C1` (atropisomer, axis not shown) [Compound 59, 1-((S)-4-((R)-6-chloro-2-(3-(dimethylamino)azetidin-1-yl)-8-fluoro-7-(2-fluoro-6-hydroxyphenyl)quinazolin-4-yl)-3-methyl-piperazin-1-yl) prop-2-en-1-one]: the Binding % result under setting [1] was “+ (+ indicates binding activity up to 50%)”. In the case of `C=CC(=O)N1CCN(c2nc(N3CC(N(C)C)C3)nc3c(F)c(-c4c(O)cccc4F)c(Cl)cc23)C[C@H]1C` (atropisomer, axis not shown) [Compound 60, 1-((R)-4-((S)-6-chloro-2-(3-(dimethylamino)azetidin-1-yl)-8-fluoro-7-(2-fluoro-6-hydroxyphenyl)quinazolin-4-yl)-2-methyl-piperazin-1-yl) prop-2-en-1-one], the Binding % entry under setting [1] is listed as “+++ (+++ indicates binding activity greater than 90%)”.

With `C=CC(=O)N1CCN(c2nc(N3CC(N(C)C)C3)nc3c(F)c(-c4c(O)cccc4F)c(Cl)cc23)C[C@H]1C` (atropisomer, axis not shown) [Compound 61, 1-((R)-4-((R)-6-chloro-2-(3-(dimethylamino)azetidin-1-yl)-8-fluoro-7-(2-fluoro-6-hydroxyphenyl)quinazolin-4-yl)-2-methyl-piperazin-1-yl) prop-2-en-1-one], under setting [1], the Binding % result was “+ (+ indicates binding activity up to 50%)”. As to `C=CC(=O)N1CCN(c2nc(OCCN3CC(F)(F)C3)nc3c(F)c(-c4c(O)cccc4F)c(Cl)cc23)C[C@H]1C` (atropisomer, axis not shown) [Compound 62, 1-((R)-4-((R)-6-chloro-2-(2-(3,3-difluoroazetidin-1-yl)ethoxy)-8-fluoro-7-(2-fluoro-6-hydroxyphenyl)quinazolin-4-yl)-2-methyl-piperazin-1-yl) prop-2-en-1-one], the Binding % result under setting [1] is “+ (+ indicates binding activity up to 50%)”.

On to `C=CC(=O)N1CCN(c2nc(OCCN3CC(F)(F)C3)nc3c(F)c(-c4c(O)cccc4F)c(Cl)cc23)C[C@H]1C` (atropisomer, axis not shown) [Compound 63, 1-((R)-4-((S)-6-chloro-2-(2-(3,3-difluoroazetidin-1-yl)ethoxy)-8-fluoro-7-(2-fluoro-6-hydroxyphenyl)quinazolin-4-yl)-2-methyl-piperazin-1-yl) prop-2-en-1-one], for which the Binding % entry under setting [1] was “+++ (+++ indicates binding activity greater than 90%)”. Take `C=CC(=O)N1CCN(c2nc(N3CC(N(C)C)C3)nc3c(F)c(-c4c(C)ccc5cn[nH]c45)c(Cl)cc23)C[C@H]1C` (atropisomer, axis not shown) [Compound 70, 1-((R)-4-((R)-6-chloro-2-(3-(dimethylamino)azetidin-1-yl)-8-fluoro-7-(6-methyl-1H-indazol-7-yl)quinazolin-4-yl)-2-methyl-piperazin-1-yl) prop-2-en-1-one]: under setting [1], the Binding % result is reported as “+++ (+++ indicates binding activity greater than 90%)”. On to `C=CC(=O)N1CCN(c2nc(N3CC(N(C)C)C3)nc3c(F)c(-c4c(C)ccc5cn[nH]c45)c(Cl)cc23)C[C@H]1C` (atropisomer, axis not shown) [Compound 71, 1-((R)-4-((S)-6-chloro-2-(3-(dimethylamino)azetidin-1-yl)-8-fluoro-7-(6-methyl-1H-indazol-7-yl)quinazolin-4-yl)-2-methyl-piperazin-1-yl) prop-2-en-1-one], for which, under setting [1], the Binding % result was “+ (+ indicates binding activity up to 50%)”. Consider `C=CC(=O)N1C[C@H](C)N(c2nc(N3CC(N(C)C)C3)nc3c(F)c(-c4c(C)ccc5cn[nH]c45)c(Cl)cc23)C[C@H]1C` (atropisomer, axis not shown) [Compound 72, 1-((2R,5S)-4-((R)-6-chloro-2-(3-(dimethylamino)azetidin-1-yl)-8-fluoro-7-(6-methyl-1H-indazol-7-yl)quinazolin-4-yl)-2,5-dimethyl-piperazin-1-yl) prop-2-en-1-one], for which the Binding % entry under setting [1] is “+++ (+++ indicates binding activity greater than 90%)”.

As to `C=CC(=O)N1C[C@H](C)N(c2nc(N3CC(N(C)C)C3)nc3c(F)c(-c4c(C)ccc5cn[nH]c45)c(Cl)cc23)C[C@H]1C` (atropisomer, axis not shown) [Compound 73, 1-((2R,5S)-4-((S)-6-chloro-2-(3-(dimethylamino)azetidin-1-yl)-8-fluoro-7-(6-methyl-1H-indazol-7-yl)quinazolin-4-yl)-2,5-dimethyl-piperazin-1-yl) prop-2-en-1-one], the Binding % result under setting [1] is on record as “+ (+ indicates binding activity up to 50%)”.

The values above are taken from patent US10646488B2 (Araxes Pharma LLC, priority 2016, dated 2020).
